From patent US8575145B2, “Triazolopyridine compounds as PIM kinase inhibitors” (Array BioPharma Inc., priority 2008, dated 2013)
Counter-ions that a name gives are not always drawn.

Assays:
MRL/MpJ-Fas<lpr> mice = experiment: MRL/lpr Lupus Model; assay type: in vivo, mouse; details: 200 mg/kg twice daily
From the text: MRL/lpr is considered to be an animal model of systemic lupus erythematosus (SLE), an autoimmune disease (Cohen and Maldonado 2003, Current Protocols in Immunology Chapter 15, Unit 15.20). MRL/lpr mice have a defect in the apoptosis of activated lymphocytes and over time develop a spontaneous and severe lymphoproliferative disorder characterized by enlarged lymphoid organs, auto-antibody production and kidney disease resulting in proteinuria. […] To determine the effect of compounds of Formula I in this model of SLE, the following experiment was conducted.
MRL/MpJ-Fasand age-matched MRL/MpJ control mice (Jackson Laboratories, catalog #000485 and #000486, respectively) were treated once daily with vehicle (1% CMC/0.5% Tween 80) or twice daily with the compound of Example 26 (200 mg/kg) for 10 weeks. Body weights, lymphadenopathy and urine protein levels were monitored weekly. Urine protein levels were determined with Bayer Albustix dipsticks (Bayer catalog #2191) and scored according to the following scale:
Serum levels of anti-ds-DNA antibody were measured by ELISA (Alpha Diagnostic, catalog #5120) on Day 28 and upon study termination. ELISA plates were quantitated using a Molecular Devices Versamax plate reader at […] and titers calculated relative using to a standard curve using a 4-parameter curve fit with Softmax Pro software.

[1] = test system: C57BL/6 recipient mice, adoptive transfer EAE model; experiment: Adoptive Transfer Experimental Autoimmune Encephalomyelitis; assay type: in vivo, mouse; details: 200 mg/kg oral gavage twice daily for 26 days
Method: Having observed that compounds of Formula I inhibit T cell activation in vitro and in vivo, the effect of a compound of Formula I on an autoimmune disease induced by T cells was determined using an adoptive transfer EAE model, an animal model of human multiple sclerosis (Brain (2006), 129, 1953-1971). This model relies on the injection of T cells from animals with EAE into disease-free host animals. This injection of cells is known to those skilled in the art as adoptive transfer. By injecting the animals with activated, encephalogenic T cells, this model is focused on the pathogenic stage of EAE autoimmune disease. On Day-14, C57BL/6 mice (Taconic Farms; 10 weeks old) were immunized with a disease-causing protein, MOG(35-55) peptide in complete Freund's adjuvant (Hooke Laboratories, catalog #EK-0113). On Day -3, spleens were harvested, single cell suspensions were prepared and then 5,000,000 cells/mL were stimulated with 20 μg/mL MOG(33-55) peptide (Open Biosystems), 30 ng/mL IL-12 (R&D Systems catalog #419-ML-010), 10 μg/mL anti-IFNγ antibody (BD Biosciences catalog #554408) at 37° C., 5% CO2. On Day 0, 1,500,000 of these cells were injected intravenously into the tail veins of C57BL/6 recipient mice. […] The recipient mice were scored daily days 0 through 26 using the following clinical scoring system: […]

## F[C@@H]1CNCCC1Oc1cccc2ccc(-c3nnc4ccccn34)nc12 (stereo in doubt) [Example 26, 2-([1,2,4]triazolo[4,3-a]pyridin-3-yl)-8-((cis)-3-fluoropiperidin-4-yloxy)quinoline dihydrochloride]
MRL/MpJ-Fas<lpr> mice; 10 weeks, relative to vehicle control
  proteinuria over time: prevents the development of proteinuria
MRL/MpJ-Fas<lpr> mice; 28 days
  decrease in serum anti-dsDNA relative to vehicle control: 74%
MRL/MpJ-Fas<lpr> mice; study termination (79 days of dosing)
  decrease in serum anti-dsDNA antibodies relative to vehicle control: 99%
[1]
  disease onset (first of 2 consecutive days with clinical score >= 1): significant delay in disease onset
[1]; untreated and vehicle groups day 6
  median day of onset: 11 days
